“And” between values parts separate entries of the source, which are not always exact repeats. Equal entries are not always repeated. “Also recorded” adds a separate entry of the source.

Assay [1] has as its system RB phosphorylation (Ser780, Ser608) in HT29 cells. The assay is described as follows: Western blotting for RB phosphorylation in HT29 cells. The assay is classed as cell-based, human. The settings on record: for time of loss of RB phosphorylation after exposure: HT29, 50 μM; for effect on RB phosphorylation: HT29, equitoxic (3×96 h IC50) concentration, 24 h. An excerpt: (§1) This antibody was selected as a representative marker for all tested phosphorylation sites of RB (see Section 2). […] A general loss of RB phosphorylation is indicated by a switch from a broad band to a thin, more rapidly migrating band for total RB (see Section 2, FIG. 9).
(§2) Samples were harvested for western blotting or for cell cycle analysis by FACS. […] Since validating the original phospho-specific antibodies, a Ser608 antibody became available from Dr Sibylle Mittnacht. This site is potentially phosphorylated by CDK4/cyclin D1 and CDK2/cyclin A (Zarkowska and Mittnacht, J. Biol Chem (1997) 9:272 12738-46).
Background: In western blotting, separated proteins are transferred to a membrane and probed.

For assay [2], the system named is cyclin D1 in HT29 cells. As to the kind of experiment: Western blotting for cyclin D1 expression in HT29 cells. The settings on record: HT29, 50 μM.
Assay [3] relates to c-FOS protein in HT29 cells. The settings on record: for effect on c-FOS protein level: HT29, 50 μM.
Assay [4] has as its system ERK1/2 phosphorylation in HT29 cells. The assay is described as follows: Western blotting for phospho-ERK1/2 in HT29 cells. The settings on record: for effect on ERK phosphorylation: HT29, equitoxic (3×96 h IC50) concentration, 24 h. It counts as cell-based, human.
The test system of assay [5] is RB phosphorylation (Ser780) in KM12 cells. The settings on record: KM12, 50 μM.
Source text: as §1, §2

For assay [6], the system named is ERK1/2 phosphorylation in KM12 cells. The assay is described as follows: Western blotting for phospho-ERK1/2 in KM12 cells. It counts as cell-based, human.
In assay [7] the test system is ELK-1 phosphorylation (Ser383) in HT29 cells.
[8] abbreviates: HT29, 10 μM with 50 μM R-roscovitine.

For `CC[C@H](CO)Nc1nc(NCc2ccccc2)c2ncn(C(C)C)c2n1` (racemic) [roscovitine], the “time of loss of RB phosphorylation after exposure” value (“time of loss of RB phosphorylation” below) in assay [1] amounted to 24 h. Further, the “effect on cyclin D1 expression” value in assay [2] was “decreased levels”. In assay [3], the “effect on c-FOS protein level” value is “increased levels”.
As for `CC[C@H](CO)Nc1nc(NCc2ccccc2)c2ncn(C(C)C)c2n1` [R-roscovitine, 2-(R)-(1-ethyl-2-hydroxyethylamino)-6-benzylamino-9-isopropylpurine], in assay [4] (HT29, 50 μM time course), the “phospho-ERK1/2 level at 24 h” value is recorded as “remaining above basal levels” and the “time of onset of induction of ERK phosphorylation” value was determined as 1 h. Also, the “time at which induction of ERK phosphorylation was observed” value in assay [4] (HT29, 50 μM, experiment with U0126 (FIG. 5B)) is 4 to 24 h. In addition, the “effect on ERK phosphorylation” value in assay [4] is reported as “induced ERK phosphorylation”. Further, the “effect on phosphorylated ERK1/2” value in assay [4] (HT29, increasing concentrations, 24 h exposure) was “increase of phosphorylated ERK1/2”. Besides, in assay [5], the “time of loss of RB phosphorylation” value fell in the range of 12 to 24 h. Besides, in assay [1], the “time of loss of RB phosphorylation” value is 12 to 24 h and 24 h; the “effect on RB phosphorylation” value is recorded as “inhibited RB phosphorylation”. In assay [6] (KM12, 50 μM time course), the “kinetics of induction of ERK phosphorylation compared with HT29” value is given as “slower kinetics”. Also, in assay [6] (KM12, increasing concentrations, 24 h exposure), the “effect on phosphorylated ERK1/2” value is on record as “increase of phosphorylated ERK1/2”. In assay [7] (HT29, 50 μM, after 4 h), the “effect on ELK-1 phosphorylation” value is reported as “strong induction”. Moreover, in assay [2], the “effect on cyclin D1 expression” value is “inhibited the expression”. Besides, the “effect on c-FOS protein level” value in assay [3] was “induction of c-FOS protein”. Moreover, in assay [3] (HT29, 50 μM time course), the “time at which an increase of c-FOS protein was detected” value lay in the range of 12 to 24 h.
Turning to `N#CC(=C(/N)Sc1ccccc1N)/C(C#N)=C(\N)Sc1ccccc1N` [U0126, reference compound], the “effect on R-roscovitine-induced ERK phosphorylation” value in assay [4] (setting [8]) is given as “prevented the induction”. The “effect on R-roscovitine-induced ELK-1 phosphorylation” value in assay [7] (setting [8]) is given as “blocked the phosphorylation”. The “effect on R-roscovitine-induced increase in c-FOS” value in assay [3] (setting [8]) is on record as “blocked”.
For `O=C1Cc2c([nH]c3ccc([N+](=O)[O-])cc23)-c2ccccc2N1` [alsterpaullone], in assay [4], the “effect on ERK phosphorylation” value was “fails to induce; also recorded: no effect upon ERK”. In addition, the “effect on RB phosphorylation” value in assay [1] is given as “failed to inhibit RB phosphorylation”.
The corresponding values for `CN1CC[C@H](c2c(O)cc(O)c3c(=O)cc(-c4ccccc4Cl)oc23)[C@H](O)C1` [flavopiridol] are “fails to induce; also recorded: no effect upon ERK” and “failed to inhibit RB phosphorylation”.
In the same order, the values of `CC(C)[C@H](CO)Nc1nc(Nc2cccc(Cl)c2)c2ncn(C(C)C)c2n1` [purvalanol A] are “fails to induce; also recorded: failed to induce ERK phosphorylation” and “inhibited RB phosphorylation”.
